The values below come from ChEMBL document CHEMBL1641524, “Synthesis and SAR of novel CXCR4 antagonists that are potent inhibitors of T tropic (X4) HIV-1 replication” (Bioorg Med Chem Lett, 2011).

Data set [1] has as its target T1, C-X-C chemokine receptor type 4 (Homo sapiens, UniProt P61073). In words: Antagonist activity at CXCR4 in human CEM-CCRF cells expressing CD4 assessed as inhibition of SDF-1-induced Ca2+ signaling. In kind it is functional, cell-based.
A short description of data set [2]: Cytotoxicity against human MT4 cells expressing CD4 and CXCR4. In kind it is cell-based.
The subject of data set [3] is Human immunodeficiency virus 1. In words: Antiviral activity against X4 tropic HIV1 NL4.3 infected in human MT4 cells expressing CD4 and CXCR4 assessed as inhibition of virus-induced cytopathicity. It counts as functional, organism-based. The settings on record: Human immunodeficiency virus 1, NL4.3, MT4. A general note: Cytopathic effects are the visible damage that an infection or toxin causes in cultured cells.

In data set [4] the test system is Rattus norvegicus. Description: (§1) Half life in rat at 10 umol/kg, iv. It counts as ADME, organism-based. The settings on record: in vivo.
The test system of the next data set is Canis familiaris. Description: (§2) AUC (0 to infinity) in dog at 5 umol/kg, iv. Details: dose 5 umol/kg, time infinity, route intravenous. In kind it is ADME, organism-based, Canis lupus familiaris, Plasma. The settings on record: in vivo.
Data set [5] has as its system Human immunodeficiency virus 1. In words: Antiviral activity against X4 tropic HIV1 infected in human PBMC assessed as inhibition of virus-induced cytopathicity. In kind it is functional, organism-based.
The nature of data set [6]: Volume of distribution in dog at 5 umol/kg, iv. It counts as ADME, organism-based, Canis lupus familiaris. The following applies: in vivo.
A short description of data set [7]: Oral bioavailability in dog at 12.5 umol/kg. In kind it is ADME, organism-based, Canis lupus familiaris. The settings on record: in vivo.
The subject of data set [8] is Rattus norvegicus. In words: (§3) AUC (0 to infinity) in rat at 10 umol/kg, iv. Details: dose 10 umol/kg, time infinity, route intravenous. The settings on record: in vivo. It counts as ADME, organism-based, Plasma.
Data set [9] is described as follows: Cmax in dog at 5 umol/kg, iv. In kind it is ADME, organism-based, Canis lupus familiaris. Also noted: dose 5 umol/kg, route intravenous. The following applies: in vivo.
Data set [10] can be described thus: Half life in dog at 5 umol/kg, iv. In kind it is ADME, organism-based, Canis lupus familiaris. The following applies: in vivo.
Data set [11] concerns the target T1, C-X-C chemokine receptor type 4. In words: Displacement of [125I]SDF-1 from CXCR4 in human CEM-CCRF cells expressing CD4 by liquid scintillation counting. In kind it is cell-based.
The nature of data set [12]: Oral bioavailability in rat at 100 umol/kg. The following applies: in vivo. In kind it is ADME, organism-based.
The subject of data set [13] is Human immunodeficiency virus 1. In words: Antiviral activity against X4 tropic HIV1 infected in human PBMC assessed as inhibition of virus-induced cytopathicity in presence of 1 mg/mL of alpha-acid glycoprotein. In kind it is functional.
In data set [14] the test system is Rattus norvegicus. In words: (§4) Cmax in rat at 10 umol/kg, iv. Details: dose 10 umol/kg, route intravenous. The settings on record: in vivo. In kind it is ADME, organism-based.
A short description of data set [15]: Volume of distribution in rat at 10 umol/kg, iv. It counts as ADME, organism-based. The settings on record: in vivo.
A short description of data set [16]: as §1. In kind it is ADME, organism-based. The settings on record: in vivo, 10 umol/kg.
The nature of data set [17]: Clearance in rat at 10 umol/kg, iv. In kind it is ADME, organism-based. The settings on record: in vivo.
Data set [18] is described as follows: as §3. It counts as ADME, organism-based, Plasma. Also noted: dose 10 umol/kg, time infinity, route intravenous. The following applies: plasma, 10 umol/kg.
Data set [19] is described as follows: as §4. In kind it is ADME, organism-based. Details: dose 10 umol/kg, route intravenous. The following applies: in vivo, 10 umol/kg.
Data set [20] in a line: as §2. Details: dose 5 umol/kg, time infinity, route intravenous. The settings on record: plasma, 5 umol/kg. It counts as ADME, organism-based, Canis lupus familiaris, Plasma.
A short description of data set [21]: Clearance in dog at 5 umol/kg, iv. It counts as ADME, organism-based, Canis lupus familiaris. The settings on record: in vivo.

T1 sequence (P61073 whole entry): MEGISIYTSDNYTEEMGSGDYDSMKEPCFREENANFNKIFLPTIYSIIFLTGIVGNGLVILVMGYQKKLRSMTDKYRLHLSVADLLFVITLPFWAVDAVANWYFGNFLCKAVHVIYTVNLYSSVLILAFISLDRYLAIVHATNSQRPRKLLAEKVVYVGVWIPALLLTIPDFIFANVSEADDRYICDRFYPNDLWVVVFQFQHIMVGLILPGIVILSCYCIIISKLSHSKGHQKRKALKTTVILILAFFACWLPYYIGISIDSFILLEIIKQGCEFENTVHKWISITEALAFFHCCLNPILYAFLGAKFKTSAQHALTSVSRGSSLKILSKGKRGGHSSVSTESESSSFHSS

On to `NCc1cc(C(F)(F)F)ccc1CN(Cc1nc2ccccc2[nH]1)C1CCCc2cccnc21` (configuration not stated), for which the IC50 (commonly the midpoint of a concentration-inhibition curve) in [1] came to 51 nM; in data set [3] it was 104 nM. Further, in data set [2], the CC50 (in general, the concentration at which the toxic effect on the cells reaches its halfway point) came out at 26600 nM.

`NCc1cc(C(N)=O)ccc1CN(Cc1nc2ccccc2[nH]1)C1CCCc2cccnc21` (configuration not stated): the IC50 turned out to be 15 nM in data set [1] and 12 nM in data set [3]. The molecule further showed a CC50 in [2] of 120000 nM.

In the case of `NCc1occc1CN(Cc1nc2ccccc2[nH]1)C1CCCc2cccnc21` (configuration not stated), the values for the IC50 in data set [1] and in data set [3] were 21 nM and 8 nM, respectively. This molecule registered a CC50 in data set [2] of 50000 nM.

Consider `NCc1cc(CO)ccc1CN(Cc1nc2ccccc2[nH]1)C1CCCc2cccnc21` (configuration not stated), for which the IC50 came out at 11 nM in data set [1] and 17 nM in [3]. Moreover, it took 37500 nM to reach half-maximal cytotoxicity in [2] (CC50).

In the case of `NCc1cocc1N(Cc1nc2ccccc2[nH]1)C1CCCc2cccnc21` (configuration not stated), the results for the IC50 in data set [1] and in data set [3] were 25 nM and 10.9 nM, respectively. Besides, the midpoint of cytotoxicity in data set [2], the CC50, lay at 30200 nM.

`NCc1ocnc1CN(Cc1nc2ccccc2[nH]1)C1CCCc2cccnc21` (configuration not stated) yielded a CC50 in [2] of 32900 nM. In addition, the IC50 in [3] stood at 2830 nM.

Take `NCc1ccncc1CN(Cc1nc2ccccc2[nH]1)C1CCCc2cccnc21` (configuration not stated): the results for the IC50 in [1] and in data set [3] were 160 nM and 124 nM, respectively. For the same molecule, the CC50 in [2] was 128000 nM.

For `NCc1ccoc1CN(Cc1nc2ccccc2[nH]1)C1CCCc2cccnc21` (configuration not stated), the IC50 in [1] was 12 nM; in data set [3] it was 0.4 nM. In data set [2], this molecule gave a CC50 of 28500 nM.

Take `NCc1ccccc1CN(Cc1nc2ccccc2[nH]1)C1CCCc2cccnc21` (configuration not stated): the IC50 in data set [1] came to 28 nM.

As for `NCc1[nH]cnc1CN(Cc1nc2ccccc2[nH]1)C1CCCc2cccnc21` (configuration not stated), in data set [2], it took 5800 nM to reach half-maximal cytotoxicity (CC50). In addition, in [3], the IC50 was above 1160 nM.

On to `NCc1ncccc1CN(Cc1nc2ccccc2[nH]1)C1CCCc2cccnc21` (configuration not stated), for which the IC50 in [1] and in data set [3] was 21 nM throughout. In addition, it took 150000 nM to reach half-maximal cytotoxicity in data set [2] (CC50).

As for `NCc1sccc1CN(Cc1nc2ccccc2[nH]1)C1CCCc2cccnc21` (configuration not stated), the IC50 in [1] came out at 60 nM; in [3], 14 nM. Besides, the CC50 in data set [2] was found to be 31500 nM.

Turning to `COC(=O)c1ccc(CN(Cc2nc3ccccc3[nH]2)C2CCCc3cccnc32)c(CN)c1` (configuration not stated), the values for the concentration for half-maximal inhibition (IC50) in data set [1] and in [3] were 39 nM and 105 nM, respectively. In data set [2], this molecule showed a CC50 of 42200 nM.

In the case of `NCc1cscc1N(Cc1nc2ccccc2[nH]1)C1CCCc2cccnc21` (configuration not stated), the values for the IC50 in data set [1] and in data set [3] were 13 nM and 103 nM, respectively. This molecule had a CC50 in [2] of 32900 nM.

Take `NCc1ncccc1CN(Cc1nc2ccccc2[nH]1)[C@H]1CCCc2cccnc21`: the t1/2 with Rattus norvegicus [4] came to 0.8 h. In addition, the AUC (usually the area under the concentration-time curve, a measure of exposure) is 13.5 µM·h with Canis familiaris and 5.4 µM·h in the data set on Rattus norvegicus [8]. Also, the results for the IC50 in data set [5], in data set [3] and in data set [11] were 9.9 nM, 4.2 nM and 19.8 nM, respectively. For the same molecule, the Vd (usually the apparent volume that relates the amount in the body to the concentration in plasma or blood) was 2.6 L/kg in data set [6] and 6.6 L/kg in data set [15]. The figures for the bioavailability in data set [7] and in data set [12] were 84% and 22%, respectively. Moreover, the Cmax (usually the maximum level reached in the sampled fluid or tissue) was 4200 nM in data set [9] and 1200 nM in the data set on Rattus norvegicus [14]. Also, the half-life (in general, the time needed for the level to fall by half in the phase considered) in data set [10] is 5.7 h. In addition, the “fold change (FC)” value in data set [13] was determined as 24.

For `COc1ccc(CN(Cc2nc3ccccc3[nH]2)C2CCCc3cccnc32)c(CN)c1` (configuration not stated), the 50% inhibitory concentration (IC50) in data set [1] turned out to be 5 nM; in data set [3] it was 18 nM. The same molecule showed a CC50 in [2] of 36500 nM.

The molecule `NCc1ccc(CN(Cc2nc3ccccc3[nH]2)C2CCCc3cccnc32)o1` (configuration not stated) gave a CC50 in [2] of 28500 nM. Further, the IC50 in data set [3] amounted to 3570 nM.

As for `NCc1cscc1N(Cc1nc2ccccc2[nH]1)[C@H]1CCCc2cccnc21`, the half-life in [16] is 1.7 h; in data set [10], 3.4 h. The molecule further returned an AUC in the data set on Canis familiaris of 3.7 µM·h. For the same molecule, the IC50 turned out to be 2 nM in [5], 0.99 nM in data set [3] and 88.9 nM in [11]. Further, the figures for the Vd in [6] and in data set [15] were 2.2 L/kg and 5.2 L/kg, respectively. Also, the bioavailability (usually dose-corrected exposure relative to a reference, in per cent) came to 9% in data set [7] and 6% in data set [12]. In addition, the clearance – broadly, a measure of how efficiently the substance is removed, as volume per time – in data set [17] came to 27.2 mL/min/kg. Also, the AUC(0-inf) (usually total exposure, with the tail of the curve extrapolated) in data set [18] was found to be 3.7 µM·h. For the same molecule, the Cmax in [9] is 2600 nM; in data set [19] it was 1400 nM. Further, in data set [13], the “fold change (FC)” value amounted to 28.

Regarding `NCc1cc(C(=O)O)ccc1CN(Cc1nc2ccccc2[nH]1)C1CCCc2cccnc21` (configuration not stated), the IC50 was 126 nM in [1] and 69 nM in [3]. The CC50 in [2] worked out at 137000 nM.

Consider `NCc1cc(F)ccc1CN(Cc1nc2ccccc2[nH]1)C1CCCc2cccnc21` (configuration not stated), for which the IC50 was 219 nM in [1] and 165 nM in data set [3]. The same molecule yielded a CC50 in [2] of 45600 nM.

For the molecule `CO/N=C/c1ccc(CN(Cc2nc3ccccc3[nH]2)C2CCCc3cccnc32)c(CN)c1` (configuration not stated), the IC50 was found to be 5 nM in [1] and 22 nM in data set [3]. In data set [2], the CC50 came to 26800 nM.

`NCc1nccnc1CN(Cc1nc2ccccc2[nH]1)C1CCCc2cccnc21` (configuration not stated) yielded a CC50 in data set [2] of 6100 nM. Further, the IC50 in data set [3] is above 1230 nM.

The molecule `NCc1ccc(CN(Cc2nc3ccccc3[nH]2)C2CCCc3cccnc32)s1` (configuration not stated) came in with a CC50 in [2] of 28500 nM. Further, the IC50 in [3] was determined as 2480 nM.

With `NCc1ccc(CN(Cc2nc3ccccc3[nH]2)C2CCCc3cccnc32)c(CN)c1` (configuration not stated), the figures for the IC50 in data set [1] and in [3] were 10 nM and 2 nM, respectively. In data set [2], this molecule yielded a CC50 of 122000 nM.

For the molecule `COCc1ccc(CN(Cc2nc3ccccc3[nH]2)C2CCCc3cccnc32)c(CN)c1` (configuration not stated), the IC50 in [1] amounted to 21 nM; in data set [3], 20 nM. Moreover, in data set [2], the midpoint of cytotoxicity, the CC50, lay at 201000 nM.

As to `NCc1nc(CN(Cc2nc3ccccc3[nH]2)C2CCCc3cccnc32)co1` (configuration not stated), half-maximal cytotoxicity in data set [2] (CC50) was put at 28500 nM. Besides, the IC50 in [3] was determined as 20100 nM.

Take `NCc1cocc1N(Cc1nc2ccccc2[nH]1)[C@H]1CCCc2cccnc21`: the values for the half-life in data set [16] and in data set [10] were 2.1 h and 2.7 h, respectively. Moreover, the AUC(0-inf) in [20] was 16.4 µM·h; in data set [18], 12.5 µM·h. Moreover, the IC50 is 4.1 nM in [5], 0.31 nM in data set [3] and 44.5 nM in data set [11]. Moreover, the Vd in data set [6] turned out to be 0.7 L/kg; in [15], 3.6 L/kg. Also, the values for the bioavailability in data set [7] and in [12] were 28% and 17%, respectively. In addition, the clearance was determined as 23.3 mL/min/kg in [17] and 3.7 mL/min/kg in [21]. Further, the Cmax in data set [9] was determined as 4700 nM; in data set [19] it was 3000 nM. The “fold change (FC)” value in [13] is recorded as 17.

Consider `NCc1ncoc1CN(Cc1nc2ccccc2[nH]1)C1CCCc2cccnc21` (configuration not stated), for which the IC50 came out at 1.3 nM in data set [1] and 7.2 nM in data set [3]. Also, in data set [2], the CC50 turned out to be 64500 nM.
